target: human PDE10A2 (Homo sapiens (Human), UniProt Q9Y233); assay: PDE10 fluorescence polarization (IMAP FP) inhibition assay; format: biochemical; details: human PDE10A2 from transfected AD293 cell lysate; FAM-labeled cAMP 50 nM; room temperature; read-out: PDE10A Ki
Procedure: The activity of the compounds in accordance with the present invention as PDE10 inhibitors may be readily determined without undue experimentation using a fluorescence polarization (FP) methodology that is well known in the art (Huang, W., et al., J. Biomol Screen, 2002, 7: 215).
In a typical experiment the PDE10 inhibitory activity of the compounds of the present invention was determined in accordance with the following experimental method. PDE10A2 was amplified from human fetal brain cDNA (Clontech, Mountain View, Calif.) using a forward primer corresponding to nucleotides 56-77 of human PDE10A2 (Accession No. AF127480, Genbank Identifier 4894716), containing a Kozak consensus sequence, and a reverse primer corresponding to nucleotides 2406-2413 of human PDE10A2 (Accession No. AF127480, Genbank Identifier 4894716). Amplification with Easy-A polymerase (Stratagene, La Jolla, Calif.) was 95° C. for 2 minutes followed by thirty three cycles of 95° C. for 40 seconds, 55° C. for 30 seconds, and 72° C. for 2 minutes 48 seconds. Final extension was 72° C. for 7 minutes. The PCR product was TA cloned into pcDNA3.2-TOPO (Invitrogen, Carlsbad, Calif.) according to standard protocol. AD293 cells with 70-80% confluency were transiently transfected with human PDE10A2/pcDNA3.2-TOPO using Lipofectamine 2000 according to manufacturer specifications (Invitrogen, Carlsbad, Calif.). Cells were harvested 48 hours post-transfection and lysed by sonication (setting 3, 10×5 sec pulses) in a buffer containing 20 mM HEPES, 1 mM EDTA and protease inhibitor cocktail (Roche). Lysate was collected by centrifugation at 75,000×g for 20 minutes. Supernatant containing the cytoplasmic fraction was used for evaluation of PDE10A2 activity. The fluorescence polarization assay for cyclic nucleotide phosphodiesterases was performed using an IMAP® FP kit supplied by Molecular Devices, Sunnyvale, Calif. (product #R8139). IMAP® technology has been applied previously to phosphodiesterase assays (Huang, W., et al., J. Biomol Screen, 2002, 7: 215). Assays were performed at room temperature in 384-well microtiter plates with an incubation volume of 20.2 μL. Solutions of test compounds were prepared in DMSO and serially diluted with DMSO to yield 8 μL of each of 10 solutions differing by 3-fold in concentration, at 32 serial dilutions per plate. 100% inhibition is determined using a known PDE10 inhibitor, which can be any compound that is present at 5,000 times its Ki value in the assay described as follows, such as papaverine (see Siuciak, et al. Neuropharmacology (2006) 51:386-396; Becker, et al. Behav Brain Res (2008) 186(2):155-60; Threlfell, et al., J Pharmacol Exp Ther (2009) 328(3):785-795), 2-[4-[pyridin-4-yl-1-(2,2,2-trifluoroethyl)-1H-pyrazol-3-yl]phenoxymethyl]quinoline succinic acid or 2-[4-(1-methyl-4-pyridin-4-yl-1H-pyrazol-3-yl)-phenoxymethyl]quinoline succinic acid (see Schmidt, et al. J Pharmacol Exp Ther (2008) 325:681-690; Threlfell, et al., J Pharmacol Exp Ther (2009) 328(3): 785-795). 0% of inhibition is determined by using DMSO (1% final concentrations). A Labcyte Echo 555 (Labcyte, Sunnyvale, Calif.) is used to dispense 200 nL from each well of the titration plate to the 384 well assay plate. A solution of enzyme (1/7000 dilution from aliquots; sufficient to produce 20% substrate conversion) and a separate solution of FAM-labeled cAMP PDE from Molecular Devices (product #R7506), at a final concentration of 50 nM are made in the assay buffer (10 mM Tris HCl, pH 7.2, 10 mM MgCl2, 0.05% NaN3 0.01% Tween-20, and 1 mM DTT). The enzyme is added to the assay plates by the addition of 10 μL of enzyme solution to each well, shaken to mix and incubated at room temperature for 60 minutes. The substrate is then added to the assay plates by the addition of 10 uL of substrate solution to each well, shaken to mix, and incubated at room temperature for 60 minutes. […]

Chain of human PDE10A2 (Q9Y233 267-1055): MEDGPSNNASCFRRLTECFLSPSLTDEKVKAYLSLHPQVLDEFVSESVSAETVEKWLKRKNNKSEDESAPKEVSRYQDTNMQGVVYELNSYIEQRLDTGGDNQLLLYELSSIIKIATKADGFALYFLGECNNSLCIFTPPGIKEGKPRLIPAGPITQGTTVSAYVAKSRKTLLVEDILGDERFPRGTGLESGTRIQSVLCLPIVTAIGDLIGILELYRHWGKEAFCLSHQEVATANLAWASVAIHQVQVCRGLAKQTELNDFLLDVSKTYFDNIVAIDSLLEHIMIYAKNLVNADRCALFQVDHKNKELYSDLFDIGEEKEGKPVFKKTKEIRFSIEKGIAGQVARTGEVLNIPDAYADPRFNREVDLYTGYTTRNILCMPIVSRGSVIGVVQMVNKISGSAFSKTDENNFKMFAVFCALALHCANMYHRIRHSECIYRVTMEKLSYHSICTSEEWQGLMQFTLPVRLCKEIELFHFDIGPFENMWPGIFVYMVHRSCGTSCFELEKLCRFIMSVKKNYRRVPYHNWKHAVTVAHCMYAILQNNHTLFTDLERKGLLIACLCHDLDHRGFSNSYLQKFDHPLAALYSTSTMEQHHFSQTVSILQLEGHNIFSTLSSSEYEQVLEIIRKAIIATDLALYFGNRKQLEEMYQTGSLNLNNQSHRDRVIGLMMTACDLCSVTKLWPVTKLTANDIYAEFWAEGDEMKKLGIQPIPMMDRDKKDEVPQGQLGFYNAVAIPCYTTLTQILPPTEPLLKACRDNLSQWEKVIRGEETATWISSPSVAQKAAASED

Ki [nM] | SMILES
0.15 | COc1ccc([C@H]2C[C@@H]2COc2nc(C)ncc2C2=CCC(O)CC2)nc1 (stereo partly drawn) [1-31, 4-(4-{[(1S,2S)-2-(5-methoxypyridin-2-yl)cyclopropyl]methoxy}-2-methylpyrimidin-5-yl)cyclohex-3-en-1-ol]
0.22 | COc1ccc([C@H]2C[C@@H]2COc2nc(C)c(C)nc2-c2cncc(OC)c2)nc1 [1-36, 2-(5-methoxypyridin-3-yl)-3-{[(1S,2S)-2-(5-methoxypyridin-2-yl)cyclopropyl]methoxy}-5,6-dimethylpyrazine]
0.34 | COc1ccc([C@H]2C[C@@H]2COc2ncc(C)cc2-c2cnn3c2CCC3)nc1 [1-39, 3-(2-{[(1S,2S)-2-(5-methoxypyridin-2-yl)cyclopropyl]methoxy}-5-methylpyridin-3-yl)-5,6-dihydro-4H-pyrrolo[1,2-b]pyrazole]
0.04 | Cn1cc(-c2cc3ccncc3nc2OC[C@H]2C[C@@H]2c2ccc3ncccc3n2)cn1 [1-42, 2-[(1S,2S)-2-({[3-(1-methyl-1H-pyrazol-4-yl)-1,7-naphthyridin-2-yl]oxy}methyl)cyclo-propyl]-1,5-naphthyridine]
0.002 | Cc1ncc(-c2c(C)nn(C)c2C)c(OC[C@H]2C[C@@H]2c2ccc3ccccc3n2)n1 [1-46, 2-[(1S,2S)-2-({[2-methyl-5-(1,3,5-trimethyl-1H-pyrazol-4-yl)pyrimidin-4-yl]oxy}methyl)cyclopropyl]quinoline]
3.2 | Cc1ncc(-c2cnn(C)c2)c(OC[C@H]2C[C@@H]2c2ccn(C)n2)n1 [1-54, 2-methyl-5-(1-methyl-1H-pyrazol-4-yl)-4-{[(1S,2S)-2-(1-methyl-1H-pyrazol-3-yl)cyclopropyl]methoxy}-pyrimidine]
4.2 | COc1ccc([C@H]2C[C@@H]2COc2nc(C)ncc2-c2nnc(C3CC3)s2)nc1 [1-55, 5-(5-cyclopropyl-1,3,4-thiadiazol-2-yl)-4-{[(1S,2S)-2-(5-methoxypyridin-2-yl)cyclopropyl]methoxy}-2-methylpyrimidine]
0.78 | COc1ccc([C@H]2C[C@@H]2COc2nc(C)ncc2-c2csc(C)n2)nc1 [1-57, 4-{[(1S,2S)-2-(5-methoxypyridin-2-yl)cyclopropyl]methoxy}-2-methyl-5-(2-methyl-1,3-thiazol-4-yl)pyrimidine]
0.8 | COc1ccc([C@H]2C[C@@H]2COc2nc(C)ncc2-c2ccc(C)nc2)nc1 [1-73, 4-{[(1S,2S)-2-(5-methoxypyridin-2-yl)cyclopropyl]methoxy}-2-methyl-5-(6-methylpyridin-3-yl)pyrimidine]
0.23 | COc1ccc([C@H]2C[C@@H]2COc2nc3cccnc3cc2-c2cnn(CCO)c2)nc1 [LL3, 2-[4-(2-{[(1S,2S)-2-(5-methoxypyridin-2-yl)cyclopropyl]methoxy}-1,5-naphthyridin-3-yl)-1H-pyrazol-1-yl]ethanol]
0.25 | COc1ccc([C@H]2C[C@@H]2COc2nc(C)ncc2-c2cnn(C)c2)nc1 [MM4, 4-{[(1S,2S)-2-(5-methoxypyridin-2-yl)cyclopropyl]methoxy}-2-methyl-5-(1-methyl-1H-pyrazol-4-yl)pyrimidine]
2.5 | COc1ccc([C@H]2C[C@@H]2COc2nc3cccnc3cc2C2CCCN(C(C)=O)C2)nc1 (stereo partly drawn) [RR4, 1-[3-(2-{[(1S,2S)-2-(5-methoxypyridin-2-yl)cyclopropyl]methoxy}-1,5-naphthyridin-3-yl)piperidin-1-yl]ethanone]
60.8 | COc1ccc([C@H]2C[C@@H]2COc2nc(C)ncc2CN2CCC(F)(F)C2)nc1 [SS1, 5-[(3,3-difluoropyrrolidin-1-yl)methyl]-4-{[(1S,2S)-2-(5-methoxypyridin-2-yl)cyclopropyl]methoxy}-2-methylpyrimidine]
0.6 | COc1ccc([C@H]2C[C@@H]2COc2nc(C)ncc2/C=C/c2cccnc2)nc1 [TT1, 4-{[(1S,2S)-2-(5-methoxypyridin-2-yl)cyclopropyl]methoxy}-2-methyl-5-[(E)-2-(pyridin-3-yl)ethenyl]pyrimidine]

Source: patent US8975261B2, “Aryloxmethyl cyclopropane derivatives as PDE10 inhibitors” (Merck Sharp & Dohme Corp., priority 2011, dated 2015)
